In patent US8093400B2, “Compounds useful in therapy” (Pfizer Inc., priority 2003, dated 2012):

Molecular target: human V1A receptor (Homo sapiens, UniProt P37288)
Assay: V1A filter binding assay ([3H]-AVP binding to CHO-hV1A membranes)
Settings: screen 1.0, [3H]-AVP binding to CHO-hV1A membranes
Method: 1.0 V1A Filter Binding Assay
Receptor binding assays were performed on cellular membranes prepared from CHO cells stably expressing the human V1A receptor, (CHO-hV1A). The CHO-hV1A cell line was kindly provided under a licensing agreement by Marc Thibonnier, Dept. of Medicine, Case Western Reserve University School of Medicine, Cleveland, Ohio. CHO-hV1A cells were routinely maintained at 37° C. in humidified atmosphere with 5% CO2 in DMEM/Hams F12 nutrient mix supplemented with 10% fetal bovine serum, 2 mM L-glutamine, 15 mM HEPES and 400 μg/ml G418. For bulk production of cell pellets, adherent CHO-hV1A cells were grown to confluency of 90-100% in 850 cm^2 roller bottles containing a medium of DMEM/Hams F12 Nutrient Mix supplemented with 10% fetal bovine serum, 2 mM L-glutamine and 15 mM HEPES. Confluent CHO-hV1A cells were washed with phosphate-buffered saline (PBS), harvested into ice cold PBS and centrifuged at 1,000 rpm. Cell pellets were stored at −80° C. until use. Cell pellets were thawed on ice and homogenised in membrane preparation buffer consisting of 50 mM Tris-HCl, pH 7.4, 5 mM MgCl2 and supplemented with a protease inhibitor cocktail, (Roche). The cell homogenate was centrifuged at 1000 rpm, 10 min, 4° C. and the supernatant was removed and stored on ice. The remaining pellet was homogenised and centrifuged as before. The supernatants were pooled and centrifuged at 25,000×g for 30 min at 4° C. […] Protein concentration was determined using Bradford reagent and BSA as a standard.
Protein linearity followed by saturation binding studies were performed on each new batch of membrane. […] Saturation binding studies were then performed using various concentrations of [^3H]-arginine vasopressin, [^3H]-AVP (0.05 nM-100 nM) and the Kd and Bmax determined.
Compounds were tested for their effects on [^3H]-AVP binding to CHO-hV1A membranes, (^3H-AVP; specific activity 65.5 Ci/mmol; NEN Life Sciences). […] The plates were sealed and counted on a TopCount Microplate Scintillation Counter (Packard Instruments). Non-specific binding (NSB) was determined using 1 μM unlabelled d(CH2)5Tyr(Me)AVP ([β-mercapto-β,β-cyclopentamethylenepropionyl,0-Me-Tyr^2,Arg^8]-vasopressin) (βMCPVP), (Sigma). The radioligand binding data was analysed using a four parameter logistic equation with the min forced to 0%. […] Specific binding was calculated by subtracting the mean NSB cpm from the mean Total cpm. For test compounds the amount of ligand bound to the receptor was expressed as % bound=(sample cpm−mean NSB cpm)/specific binding cpm×100. […] The inhibitory dissociation constant (Ki) was calculated using the Cheng-Prusoff equation: Ki=IC50/(1+[L]/Kd) where [L] is the concentration of ligand present in the well and Kd is the dissociation constant of the radioligand obtained from Scatchard plot analysis. […]

Chain of human V1A receptor (P37288 whole entry): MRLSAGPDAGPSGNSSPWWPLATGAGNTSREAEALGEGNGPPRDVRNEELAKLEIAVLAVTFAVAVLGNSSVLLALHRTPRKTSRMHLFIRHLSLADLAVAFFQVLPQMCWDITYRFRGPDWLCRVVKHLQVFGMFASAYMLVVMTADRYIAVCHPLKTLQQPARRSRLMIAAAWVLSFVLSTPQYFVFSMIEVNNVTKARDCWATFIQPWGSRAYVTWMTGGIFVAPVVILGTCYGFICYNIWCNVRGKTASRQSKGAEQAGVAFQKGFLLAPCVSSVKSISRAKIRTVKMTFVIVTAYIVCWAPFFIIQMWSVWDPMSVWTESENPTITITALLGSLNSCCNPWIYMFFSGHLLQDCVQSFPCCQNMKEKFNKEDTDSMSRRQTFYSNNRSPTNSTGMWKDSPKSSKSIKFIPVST

Row | Ki | Structure (SMILES)
1 | 2.98 nM | O=C(c1cc(F)cc(F)c1)N1CCC(c2nnc(Cn3nccn3)n2-c2ccc(Cl)cc2)CC1 [Example 165, {4-[4-(4-Chloro-phenyl)-5-[1,2,3]triazol-2-ylmethyl-4H-[1,2,4]triazol-3-yl]-piperidin-1-yl}-(3,5-difluoro-phenyl)-methanone]
2 | 1.99 nM | O=C(c1cc(Cl)ccc1F)N1CCC(c2nnc(Cn3nccn3)n2-c2ccc(Cl)cc2)CC1 [Example 399, (5-Chloro-2-fluoro-phenyl)-{4-[4-(4-chloro-phenyl)-5-[1,2,3]triazol-2-ylmethyl-4H-[1,2,4]triazol-3-yl]-piperidin-1-yl}-methanone]
3 | 1.11 nM | O=C(c1n[nH]c2ccccc12)N1CCC(c2nnc(Cn3nccn3)n2-c2ccc(Cl)cc2)CC1 [Example 405, {4-[4-(4-Chloro-phenyl)-5-[1,2,3]triazol-2-ylmethyl-4H-[1,2,4]triazol-3-yl]-piperidin-1-yl}-(1H-indazol-3-yl)-methanone]
4 | 2.43 nM | O=C(c1ccc(C(F)F)cc1)N1CCC(c2nnc(Cn3nccn3)n2-c2ccc(Cl)cc2)CC1 [Example 206, {4-[4-(4-Chloro-phenyl)-5-[1,2,3]triazol-2-ylmethyl-4H-[1,2,4]triazol-3-yl]-piperidin-1-yl}-(4-difluoromethyl-phenyl)-methanone]
